# Patent US20070161697A1, “Hydrazide type compounds and the use thereof in pharmaceutical compositions for the treatment of cardiovascular diseases” (priority 2004, published 2007)
# Assays:
# [1] = tested on: ApoE −/− mice; assay: Total cholesterol in plasma, ApoE −/− mice on dietary regimen rich in cholesterol; assay type: in vivo; conditions: for Plasma total cholesterol level: untreated 7.27 ± 0.55
# From the text: Firstly, mice devoid of the coding gene for Apo lipoprotein E (ApoE −/−) have been used. These mice represent a model of choice of studying early atherosclerosis and development of a plaque rich in foamy macrophages. Male C57BL/6J mice homozygote for deletion of the ApoE gene were subjected to a normal dietary regimen until the age of eight weeks. These mice (n=8 per group) subsequently received ad libitum and for 12 weeks either a dietary regimen not enriched with cholesterol or fat, or an enriched regimen, containing 1.5 g/kg of cholesterol and 200 g/kg of fat of milk origin. The untreated mice underwent daily intraperitoneal injections of a solution containing DMSO at 10%. […] Following the blood sample for the biochemical analyses, the mice were killed.
# The circulating total cholesterol may be measured by enzymatic assay using the commercially available kit. This assay may for example use an enzymatic sequence of the cholesterol-esterase/cholesteroloxydase/chromogenic peroxidase type. In summary, the total esterified cholesterol is transformed into free cholesterol and fatty acid by the action of cholesterol esterase. The non-esterified cholesterol is subsequently measured by the formation of quinoeimine in the presence of cholesterol oxidase and peroxidise. The intensity of the quinoneimine coloration is proportional to the quantity of cholesterol present in the sample.
# When mice are subjected to a dietary regimen rich in cholesterol, the total cholesterol level decreases from a value of 7.27±0.55 g/L to a value of 6.86±0.65 g/L, i.e. a variation of 5.6%. This effect observed is dependent on the dose of CGP 02-01.
# [2] = tested on: Wistar rats; assay: Total cholesterol in plasma, rats on dietary regimen rich in fructose; assay type: in vivo; conditions: 50 mg/kg oral, 3 weeks of treatment
# Description: Secondly, the activity of the compound CGP 02-01 was studied using a reference rat-fructose model. Groups of Wistar rats (n=12) were subjected for 3 weeks to a dietary regimen containing […] of fructose. Under these conditions, the rats develop a metabolic syndrome comprising hyperglycaemia, hyperinsulinaemia, hypercholesterolaemia and hypertriglyceridaemia. Groups of rats subsequently received by forced feeding 50 mg/kg of the compound CGP 02-01 dissolved in a 2% tween solution prepared in methylcellulose. The blood samples for the biochemical analyses were performed after 1, 2 and 3 weeks. Independent groups of rats wee treated under the same conditions with metformin hydrochloride at a dose of 50 mg/kg. The metformin served as a reference in this metabolic syndrome model. The circulating total cholesterol may be measured by enzymatic assay using the commercially available kit. This assay may for example use an enzymatic sequence of the cholesterol-esterase/cholesteroloxydase/chromogenic peroxidase type. In summary, the total esterified cholesterol is transformed into free cholesterol and fatty acid by the action of cholesterol esterase. The non-esterified cholesterol is subsequently measured by the formation of quinoeimine in the presence of cholesterol oxidase and peroxidise. The intensity of the quinoneimine coloration is proportional to the quantity of cholesterol present in the sample.
# [3] = tested on: Wistar rats; assay: Plasma glucose level (glycaemia) in rats on fructose-rich regimen; assay type: in vivo; conditions: oral, 21 days of treatment, FIG. 17
# Description: (§1) Secondly, the activity of the compound CGP 02-01 was studied using a reference rat-fructose model. Groups of Wistar rats (n=12) were subjected for 3 weeks to a dietary regimen containing […] of fructose. […] Groups of rats subsequently received by forced feeding 50 mg/kg of the compound CGP 02-01 dissolved in a 2% tween solution prepared in methylcellulose. The blood samples for the biochemical analyses were performed after 1, 2 and 3 weeks. Independent groups of rats wee treated under the same conditions with metformin hydrochloride at a dose of 50 mg/kg. The metformin served as a reference in this metabolic syndrome model.
# [4] = tested on: Wistar rats; assay: Insulin in plasma, rats on dietary regimen rich in fructose; assay type: in vivo; conditions: 50 mg/kg oral
# Description: as §1, with “syndrome model. Assay of insulin in plasma may be performed by radioimmunological assay using commercially available kits comprising specific anti-insulin antibodies of mice or rats. One may for example use the rat/mouse ELISA kits, Linco research (ref. EZRMI-13K).” for “syndrome model.”
# [5] = tested on: ApoE −/− mice; assay: Free cholesterol in plasma, ApoE −/− mice on normal non-enriched dietary regimen; assay type: in vivo; conditions: 1 mg/kg; 3 months; p<0.05
# From the text: (§2) Firstly, mice devoid of the coding gene for Apo lipoprotein E (ApoE −/−) have been used. These mice represent a model of choice of studying early atherosclerosis and development of a plaque rich in foamy macrophages. Male C57BL/6J mice homozygote for deletion of the ApoE gene were subjected to a normal dietary regimen until the age of eight weeks. These mice (n=8 per group) subsequently received ad libitum and for 12 weeks either a dietary regimen not enriched with cholesterol or fat, or an enriched regimen, containing 1.5 g/kg of cholesterol and 200 g/kg of fat of milk origin. The untreated mice underwent daily intraperitoneal injections of a solution containing DMSO at 10%. The treated mice received by intraperitoneal injection the same solution containing 2 or 20 μg (i.e. 0.1 mg/kg/day or 1 mg/kg/day) of the compound CGP 02-01. Following the blood sample for the biochemical analyses, the mice were killed.
# Measurement of free cholesterol may be performed by an enzymatic method. The free cholesterol is oxidised by cholesterol oxidase into Delta 4 cholestenon and simultaneously produces hydrogen peroxide. The hydrogen peroxide subsequently allows oxidative condensation of the DHESA and the aminoantipyrinre, producing a blue colour. The quantity of free cholesterol is subsequently measured by the absorbance of the blue colour. […]
# [6] = tested on: ApoE negative mice; assay: Histological analysis of the aortic lesions (atheroma plaque) of ApoE negative mice; assay type: in vivo; conditions: aorta of treated vs untreated mice; FIG. 6
# From the text: as §2
# The aortas of the mice are fixed with paraformaldehyde and are dissected into 10 μm sections for histological analysis of the lesions (FIG. 6).
# [7] = tested on: ApoE −/− mice; assay: Analysis of coronary ischaemia in ApoE −/− mice; assay type: in vivo; conditions: injected; normal or cholesterol-rich regimen; FIG. 15
# From the text: as §2
# After killing the ApoE −/− mice subjected to a normal dietary regimen or a dietary regimen rich in cholesterol, the hearts of these animals are observed macroscopically. The rate of ischaemic lesions is observed (FIG. 15) and quantified by the presence or absence of lesions (FIG. 16).
smiles,measurement,setting,value
"COc1cc(O)c(/C=N/NC(=O)c2cc3ccccc3s2)c(OC)c1 [CGP02-01, N′-[(1E)-(2-hydroxy-4,6-dimethoxyphenyl)methylene]-1-benzothiophene-2-carbohydrazide]",Plasma total cholesterol level,[1]; 0.4 mg/kg,8.08 ± 0.62 g/L
same,Variation of total cholesterol level vs untreated,"[1]; 1 mg/kg, 3 months",5.6%
same,Plasma total cholesterol level,"[1]; 1 mg/kg, 3 months",6.86 ± 0.65 g/L
same,Reduction in total cholesterol,[2],54.5%
same,Plasma total cholesterol level,[2]; control 0.79±0.05,0.36 ± 0.03 g/L
same,Increase in glycaemia,[3],stabilises this increase in glycaemia
same,Variation (reduction) of insulin level,[4],11.3%
same,Plasma insulin level,"[4]; 3 weeks, control 1.85±0.04",1.64 ± 0.03 ng/mL
same,Effect on plasma free cholesterol variation vs untreated,[5],22.7%
same,Foamy macrophages and inflammatory reaction in the atheroma plaque,[6],significant reduction in these macrophages
same,Coronary ischaemic (cardiac) lesions,[7],considerably reduced
same,melting point,,205.4 °C
